Reference: publication PMC4844702, “Selective inhibition of the kinase DYRK1A by targeting its folding process” (Nature Communications, 2016)

What was measured:
Assay in all cases: Kinase panel (Carna)
Assay type in all cases: biochemical
ARG = target: T1, ARG (Homo sapiens, UniProt P42684)
T1 construct: purchased Carna Biosciences
Source text: (§1) Detailed information on the assay conditions is available on the website of Carna Biosciences (http://www.carnabio.com).

BMX = target: T2, BMX (Homo sapiens, UniProt P51813)
T2 construct: purchased Carna Biosciences
Source text: as §1

DDR1 = target: T3, DDR1 (Homo sapiens, UniProt Q08345)
T3 construct: purchased Carna Biosciences

EPHA3 = target: T4, EPHA3 (Homo sapiens, UniProt P29320)
T4 construct: purchased Carna Biosciences

FES = target: T5, FES (Homo sapiens, UniProt P07332)
T5 construct: purchased Carna Biosciences
Source text: as §1

FGR = target: T6, FGR (Homo sapiens, UniProt P09769)
T6 construct: purchased Carna Biosciences

FMS = target: T7, FMS (Homo sapiens, UniProt P07333)
T7 construct: purchased Carna Biosciences
Source text: as §1

LCK = target: T8, LCK (Homo sapiens, UniProt P06239)
T8 construct: purchased Carna Biosciences
Source text: as §1

PDGFRα = target: T9, PDGFRα (Homo sapiens, UniProt P16234)
T9 construct: purchased Carna Biosciences
Source text: as §1

PYK2 = target: T10, PYK2 (Homo sapiens, UniProt Q14289)
T10 construct: purchased Carna Biosciences
Source text: as §1

RON = target: T11, RON (Homo sapiens, UniProt Q04912)
T11 construct: purchased Carna Biosciences
Source text: as §1

TIE2 = target: T12, TIE2 (Homo sapiens, UniProt Q02763)
T12 construct: purchased Carna Biosciences
Source text: as §1

AKT2 = target: T13, AKT2 (Homo sapiens, UniProt P31751)
T13 construct: purchased Carna Biosciences
Source text: as §1

AurC = target: T14, AurC (Homo sapiens, UniProt Q9UQB9)
T14 construct: purchased Carna Biosciences
Source text: as §1

DCAMKL2 = target: T15, DCAMKL2 (Homo sapiens, UniProt Q8N568)
T15 construct: purchased Carna Biosciences
Source text: as §1

CaMK2δ = target: T16, CaMK2δ (Homo sapiens, UniProt Q13557)
T16 construct: purchased Carna Biosciences

CDK2/CycE1 = target: T17, CDK2/CycE1 (Homo sapiens, UniProt P24941)
T17 construct: purchased Carna Biosciences
Source text: as §1

CDK3/CycE1 = target: T18, CDK3/CycE1 (Homo sapiens, UniProt Q00526)
T18 construct: purchased Carna Biosciences
Source text: as §1

CDK6/CycD3 = target: T19, CDK6/CycD3 (Homo sapiens, UniProt Q00534)
T19 construct: purchased Carna Biosciences
Source text: as §1

CK1γ3 = target: T20, CK1γ3 (Homo sapiens, UniProt Q9Y6M4)
T20 construct: purchased Carna Biosciences

CK1δ = target: T21, CK1δ (Homo sapiens, UniProt P48730)
T21 construct: purchased Carna Biosciences

DAPK1 = target: T22, DAPK1 (Homo sapiens, UniProt P53355)
T22 construct: purchased Carna Biosciences
Source text: as §1

MAP4K2 = target: T23, MAP4K2 (Homo sapiens, UniProt Q12851)
T23 construct: purchased Carna Biosciences
Source text: as §1

Erk1 = target: T24, Erk1 (Homo sapiens, UniProt P27361)
T24 construct: purchased Carna Biosciences
Source text: as §1

Haspin = target: T25, Haspin (Homo sapiens, UniProt Q8TF76)
T25 construct: purchased Carna Biosciences

MAP2K4_Cascade = target: T26, MAP2K4_Cascade (Homo sapiens, UniProt P45985)
T26 construct: purchased Carna Biosciences

MAP3K1_Cascade = target: T27, MAP3K1_Cascade (Homo sapiens, UniProt Q13233)
T27 construct: purchased Carna Biosciences
Source text: as §1

MAP3K4_Cascade = target: T28, MAP3K4_Cascade (Homo sapiens, UniProt Q9Y6R4)
T28 construct: purchased Carna Biosciences
Source text: as §1

MSSK1 = target: T29, MSSK1 (Homo sapiens, UniProt Q9UPE1)
T29 construct: purchased Carna Biosciences
Source text: as §1

MST1 = target: T30, MST1 (Homo sapiens, UniProt Q13043)
T30 construct: purchased Carna Biosciences
Source text: as §1

MST3 = target: T31, MST3 (Homo sapiens, UniProt Q9Y6E0)
T31 construct: purchased Carna Biosciences
Source text: as §1

p38δ = target: T32, p38δ (Homo sapiens, UniProt O15264)
T32 construct: purchased Carna Biosciences
Source text: as §1

PAK2 = target: T33, PAK2 (Homo sapiens, UniProt Q13177)
T33 construct: purchased Carna Biosciences
Source text: as §1

PHKG1 = target: T34, PHKG1 (Homo sapiens, UniProt Q16816)
T34 construct: purchased Carna Biosciences
Source text: as §1

PHKG2 = target: T35, PHKG2 (Homo sapiens, UniProt P15735)
T35 construct: purchased Carna Biosciences
Source text: as §1

PKCε = target: T36, PKCε (Homo sapiens, UniProt Q02156)
T36 construct: purchased Carna Biosciences
Source text: as §1

PKD1 = target: T37, PKD1 (Homo sapiens, UniProt Q15139)
T37 construct: purchased Carna Biosciences
Source text: as §1

PKR = target: T38, PKR (Homo sapiens, UniProt P19525)
T38 construct: purchased Carna Biosciences

QIK = target: T39, QIK (Homo sapiens, UniProt Q9H0K1)
T39 construct: purchased Carna Biosciences

RSK1 = target: T40, RSK1 (Homo sapiens, UniProt Q15418)
T40 construct: purchased Carna Biosciences

RSK3 = target: T41, RSK3 (Homo sapiens, UniProt Q15349)
T41 construct: purchased Carna Biosciences

skMLCK = target: T42, skMLCK (Homo sapiens, UniProt Q9H1R3)
T42 construct: purchased Carna Biosciences

TAOK2 = target: T43, TAOK2 (Homo sapiens, UniProt Q9UL54)
T43 construct: purchased Carna Biosciences
Source text: as §1

TNIK = target: T44, TNIK (Homo sapiens, UniProt Q9UKE5)
T44 construct: purchased Carna Biosciences
Source text: as §1

TSSK1 = target: T45, TSSK1 (Homo sapiens, UniProt Q9BXA7)
T45 construct: purchased Carna Biosciences
Source text: as §1

T8 sequence (P06239 whole entry): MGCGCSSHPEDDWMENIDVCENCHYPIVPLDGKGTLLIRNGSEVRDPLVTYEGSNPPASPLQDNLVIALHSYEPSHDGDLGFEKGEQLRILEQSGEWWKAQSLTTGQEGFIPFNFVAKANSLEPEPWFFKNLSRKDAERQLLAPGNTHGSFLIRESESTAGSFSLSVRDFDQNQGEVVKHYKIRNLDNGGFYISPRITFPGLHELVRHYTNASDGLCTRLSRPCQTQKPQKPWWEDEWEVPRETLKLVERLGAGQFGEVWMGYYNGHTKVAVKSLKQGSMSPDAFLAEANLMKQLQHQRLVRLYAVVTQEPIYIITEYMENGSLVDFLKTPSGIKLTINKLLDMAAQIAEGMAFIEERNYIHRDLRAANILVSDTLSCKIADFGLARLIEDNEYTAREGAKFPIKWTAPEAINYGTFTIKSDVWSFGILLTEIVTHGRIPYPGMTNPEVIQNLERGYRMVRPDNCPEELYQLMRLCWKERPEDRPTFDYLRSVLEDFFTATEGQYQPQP
T22 sequence (P53355 whole entry): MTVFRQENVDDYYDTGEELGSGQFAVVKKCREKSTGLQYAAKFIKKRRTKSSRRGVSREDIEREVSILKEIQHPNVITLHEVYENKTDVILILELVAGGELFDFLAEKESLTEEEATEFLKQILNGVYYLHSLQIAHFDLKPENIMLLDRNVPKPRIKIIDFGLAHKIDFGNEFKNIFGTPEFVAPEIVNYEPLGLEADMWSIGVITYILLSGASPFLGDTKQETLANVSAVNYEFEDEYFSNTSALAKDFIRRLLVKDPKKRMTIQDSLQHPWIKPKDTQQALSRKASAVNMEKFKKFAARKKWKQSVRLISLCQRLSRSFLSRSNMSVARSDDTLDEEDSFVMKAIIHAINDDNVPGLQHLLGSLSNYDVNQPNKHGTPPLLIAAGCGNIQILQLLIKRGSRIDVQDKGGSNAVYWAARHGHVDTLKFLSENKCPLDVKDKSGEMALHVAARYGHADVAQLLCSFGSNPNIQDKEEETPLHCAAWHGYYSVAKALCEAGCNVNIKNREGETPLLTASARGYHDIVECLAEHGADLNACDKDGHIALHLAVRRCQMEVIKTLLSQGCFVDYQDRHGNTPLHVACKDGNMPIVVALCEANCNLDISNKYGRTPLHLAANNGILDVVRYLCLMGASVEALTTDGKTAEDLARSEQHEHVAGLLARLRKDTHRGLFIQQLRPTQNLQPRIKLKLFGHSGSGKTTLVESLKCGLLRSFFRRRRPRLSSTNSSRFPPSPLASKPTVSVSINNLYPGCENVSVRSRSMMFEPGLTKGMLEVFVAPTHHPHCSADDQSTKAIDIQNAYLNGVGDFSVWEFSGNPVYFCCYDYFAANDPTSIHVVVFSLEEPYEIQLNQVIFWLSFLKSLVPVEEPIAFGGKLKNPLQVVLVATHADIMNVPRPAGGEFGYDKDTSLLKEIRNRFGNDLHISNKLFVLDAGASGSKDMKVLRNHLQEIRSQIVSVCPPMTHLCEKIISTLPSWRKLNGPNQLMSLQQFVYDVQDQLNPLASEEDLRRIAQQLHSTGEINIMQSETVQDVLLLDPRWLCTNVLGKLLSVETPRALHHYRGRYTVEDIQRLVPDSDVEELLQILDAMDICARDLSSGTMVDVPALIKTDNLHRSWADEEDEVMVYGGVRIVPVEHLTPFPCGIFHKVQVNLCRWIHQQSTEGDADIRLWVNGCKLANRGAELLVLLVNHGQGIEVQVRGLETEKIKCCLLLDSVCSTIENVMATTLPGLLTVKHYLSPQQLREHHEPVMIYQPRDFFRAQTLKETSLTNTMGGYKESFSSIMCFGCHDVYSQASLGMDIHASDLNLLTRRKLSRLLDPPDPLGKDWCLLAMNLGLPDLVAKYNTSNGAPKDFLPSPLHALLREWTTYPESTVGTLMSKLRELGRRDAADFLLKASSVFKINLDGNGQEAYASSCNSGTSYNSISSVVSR
T44 sequence (Q9UKE5 whole entry): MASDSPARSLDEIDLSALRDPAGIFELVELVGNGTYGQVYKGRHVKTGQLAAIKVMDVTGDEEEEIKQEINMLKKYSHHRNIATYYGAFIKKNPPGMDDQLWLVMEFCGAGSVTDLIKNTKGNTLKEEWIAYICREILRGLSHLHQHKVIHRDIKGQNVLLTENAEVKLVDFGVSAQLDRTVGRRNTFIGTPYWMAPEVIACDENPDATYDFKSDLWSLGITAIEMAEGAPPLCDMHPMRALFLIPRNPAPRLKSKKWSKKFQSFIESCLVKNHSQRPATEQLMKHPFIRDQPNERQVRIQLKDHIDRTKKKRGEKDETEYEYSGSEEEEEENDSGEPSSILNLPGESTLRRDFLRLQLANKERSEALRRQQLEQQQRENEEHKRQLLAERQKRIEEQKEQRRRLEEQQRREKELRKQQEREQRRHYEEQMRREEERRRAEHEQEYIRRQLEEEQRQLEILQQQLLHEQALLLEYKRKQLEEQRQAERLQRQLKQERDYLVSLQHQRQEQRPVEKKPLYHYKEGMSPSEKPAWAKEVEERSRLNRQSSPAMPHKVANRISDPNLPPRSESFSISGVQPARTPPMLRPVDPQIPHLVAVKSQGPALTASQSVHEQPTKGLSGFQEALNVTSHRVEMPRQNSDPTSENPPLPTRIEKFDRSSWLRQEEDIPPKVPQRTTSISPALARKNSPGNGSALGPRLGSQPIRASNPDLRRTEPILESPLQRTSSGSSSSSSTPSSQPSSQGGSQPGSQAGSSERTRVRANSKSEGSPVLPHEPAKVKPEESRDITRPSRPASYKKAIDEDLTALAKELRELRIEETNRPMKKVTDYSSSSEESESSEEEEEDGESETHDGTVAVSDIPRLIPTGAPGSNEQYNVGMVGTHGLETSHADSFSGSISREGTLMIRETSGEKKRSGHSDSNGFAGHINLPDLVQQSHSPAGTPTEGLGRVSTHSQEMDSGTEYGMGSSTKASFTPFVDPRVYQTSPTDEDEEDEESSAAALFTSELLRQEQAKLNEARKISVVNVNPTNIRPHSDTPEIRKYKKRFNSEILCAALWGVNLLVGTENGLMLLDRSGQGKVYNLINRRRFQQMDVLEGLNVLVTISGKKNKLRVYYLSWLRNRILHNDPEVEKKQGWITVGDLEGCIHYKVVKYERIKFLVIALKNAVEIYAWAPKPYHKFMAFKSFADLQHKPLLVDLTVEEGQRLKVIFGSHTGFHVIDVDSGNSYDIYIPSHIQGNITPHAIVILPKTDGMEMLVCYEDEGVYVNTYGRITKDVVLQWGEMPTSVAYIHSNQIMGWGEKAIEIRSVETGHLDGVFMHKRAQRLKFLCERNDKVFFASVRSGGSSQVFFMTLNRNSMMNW
T15 sequence (Q8N568 whole entry): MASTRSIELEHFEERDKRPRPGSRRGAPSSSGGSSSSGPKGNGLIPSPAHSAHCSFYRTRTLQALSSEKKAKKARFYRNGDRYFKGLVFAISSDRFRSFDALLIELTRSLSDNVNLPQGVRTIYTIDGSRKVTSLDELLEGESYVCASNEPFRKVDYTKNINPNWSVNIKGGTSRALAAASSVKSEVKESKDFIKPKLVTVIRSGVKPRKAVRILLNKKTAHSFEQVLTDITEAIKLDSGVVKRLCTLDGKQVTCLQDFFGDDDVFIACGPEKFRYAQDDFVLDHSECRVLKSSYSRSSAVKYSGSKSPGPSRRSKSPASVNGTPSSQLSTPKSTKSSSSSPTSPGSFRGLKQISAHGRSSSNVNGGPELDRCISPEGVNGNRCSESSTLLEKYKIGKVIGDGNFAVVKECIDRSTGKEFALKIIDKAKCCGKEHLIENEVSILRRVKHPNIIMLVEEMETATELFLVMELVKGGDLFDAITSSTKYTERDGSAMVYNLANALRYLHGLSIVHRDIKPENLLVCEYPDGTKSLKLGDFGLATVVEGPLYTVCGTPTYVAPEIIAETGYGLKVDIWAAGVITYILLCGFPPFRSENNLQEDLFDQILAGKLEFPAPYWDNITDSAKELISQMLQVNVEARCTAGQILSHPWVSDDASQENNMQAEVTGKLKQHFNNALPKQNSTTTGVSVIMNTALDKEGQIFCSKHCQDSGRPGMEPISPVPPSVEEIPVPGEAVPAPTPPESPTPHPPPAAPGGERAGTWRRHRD
T24 sequence (P27361 whole entry): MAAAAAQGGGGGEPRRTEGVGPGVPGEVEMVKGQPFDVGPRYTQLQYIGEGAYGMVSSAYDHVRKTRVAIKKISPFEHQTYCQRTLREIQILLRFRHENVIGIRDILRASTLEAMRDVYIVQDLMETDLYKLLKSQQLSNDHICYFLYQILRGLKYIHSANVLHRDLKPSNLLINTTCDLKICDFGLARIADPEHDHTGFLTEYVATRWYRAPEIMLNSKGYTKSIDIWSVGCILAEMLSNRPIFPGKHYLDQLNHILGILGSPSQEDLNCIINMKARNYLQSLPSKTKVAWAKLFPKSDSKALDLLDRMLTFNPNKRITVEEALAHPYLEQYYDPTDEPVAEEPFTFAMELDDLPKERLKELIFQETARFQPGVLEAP
T35 sequence (P15735 whole entry): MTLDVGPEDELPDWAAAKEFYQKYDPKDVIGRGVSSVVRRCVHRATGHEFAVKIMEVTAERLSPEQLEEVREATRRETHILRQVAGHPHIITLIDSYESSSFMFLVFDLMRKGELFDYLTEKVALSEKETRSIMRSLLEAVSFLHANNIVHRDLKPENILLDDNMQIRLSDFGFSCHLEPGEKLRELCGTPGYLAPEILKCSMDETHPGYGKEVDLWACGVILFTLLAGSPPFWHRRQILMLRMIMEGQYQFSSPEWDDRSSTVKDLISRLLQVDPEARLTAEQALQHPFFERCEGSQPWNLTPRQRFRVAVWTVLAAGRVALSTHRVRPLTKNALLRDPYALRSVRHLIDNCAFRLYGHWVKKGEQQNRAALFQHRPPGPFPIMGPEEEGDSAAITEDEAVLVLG

Structure (SMILES): COc1ccc(/C=C2\SC(=S)NC2=O)cc1C#C[Si](C)(C)C [FINDY]
- inhibition at 10 µM (ARG): 15.2%
- inhibition at 10 µM (BMX): 10.5%
- inhibition at 10 µM (DDR1): -3.2%
- inhibition at 10 µM (EPHA3): 20.8%
- inhibition at 10 µM (FES): 1.6%
- inhibition at 10 µM (FGR): 5.3%
- inhibition at 10 µM (FMS): 6.8%
- inhibition at 10 µM (LCK): 7.2%
- inhibition at 10 µM (PDGFRα): 14.8%
- inhibition at 10 µM (PYK2): 3.6%
- inhibition at 10 µM (RON): 9.2%
- inhibition at 10 µM (TIE2): 55.7%
- inhibition at 10 µM (AKT2): 23.5%
- inhibition at 10 µM (AurC): 40.1%
- inhibition at 10 µM (DCAMKL2): -3.8%
- inhibition at 10 µM (CaMK2δ): -4%
- inhibition at 10 µM (CDK2/CycE1): 64.9%
- inhibition at 10 µM (CDK3/CycE1): 20.7%
- inhibition at 10 µM (CDK6/CycD3): 3.2%
- inhibition at 10 µM (CK1γ3): 15.9%
- inhibition at 10 µM (CK1δ): 29.1%
- inhibition at 10 µM (DAPK1): 14.8%
- inhibition at 10 µM (MAP4K2): 3.3%
- inhibition at 10 µM (Erk1): 33.8%
- inhibition at 10 µM (Haspin): 30.3%
- inhibition at 10 µM (MAP2K4_Cascade): 6.4%
- inhibition at 10 µM (MAP3K1_Cascade): 44.4%
- inhibition at 10 µM (MAP3K4_Cascade): 39.8%
- inhibition at 10 µM (MSSK1): 6.6%
- inhibition at 10 µM (MST1): -5.2%
- inhibition at 10 µM (MST3): 6.4%
- inhibition at 10 µM (p38δ): 11.9%
- inhibition at 10 µM (PAK2): -2.5%
- inhibition at 10 µM (PHKG1): 8.9%
- inhibition at 10 µM (PHKG2): 1.9%
- inhibition at 10 µM (PKCε): -6.6%
- inhibition at 10 µM (PKD1): 11.8%
- inhibition at 10 µM (PKR): 5.8%
- inhibition at 10 µM (QIK): -7.7%
- inhibition at 10 µM (RSK1): 39.8%
- inhibition at 10 µM (RSK3): 28%
- inhibition at 10 µM (skMLCK): 2%
- inhibition at 10 µM (TAOK2): -1.2%
- inhibition at 10 µM (TNIK): 10.7%
- inhibition at 10 µM (TSSK1): 3.3%
